Measurements: US12600740B2, “Fluorinated N-acetyl glucosamine analogs and xylose derivatives” (UTI Limited Partnership, priority 2018, dated 2026)
“Also recorded” adds a separate entry of the source. Read-outs that look alike come from different tables or passages of the source.

Key:
[1] = system: mouse astrocytes; assay: Propidium iodide/calcein AM toxicity on astrocytes; assay type: cell-based; settings: 100 μM, 48 hours
Procedure: Toxicity on astrocytes was assayed with propidium iodide/calcein AM […]. Live cells convert calcein AM into a green fluorescent product, whereas dying/dead cells are stained with propidium iodide.
96-well plates were imaged with ImageXpress® Micro Cellular Imaging and Analysis System (Molecular Devices, Sunnyvale, CA). Twelve images per well were collected at ×10 magnification. Images were processed with MetaXpress analysis software. OPC outgrowth was calculated by the MetaExpress® “neurite outgrowth” software module which uses fluorescence and user-modified parameters to document the overall extent of processes emanating from the cell soma, regardless of size of the protrusions or the number of branches. This was previously detailed elsewhere [Cua, R. C.; Lau, L. W.; Keough, M. B.; Midha, R.; Apte, S. S.; and Yong, V. W. Overcoming neurite-inhibitory chondroitin sulfate proteoglycans in the astrocyte matrix. Glia 2013, 61 (6), 972-84]. Live-dead cell assay was calculated with MetaXpress analysis software with the “multiwavelength cell scoring”, which uses fluorescent intensity to measure co-localization of calcein AM, propidium iodide, and […]. Data from the 12 images were averaged to a single data point per well, wherein the OPC outgrowth data calculated from the MetaExpress® “neurite outgrowth” readout was divided by data from the same 12 fields of cell number that was acquired through the multiwavelength cell scoring. This provided mean outgrowth per cell per well, with four well replicates per treatment. Experiments were repeated at least twice.
A mixture was created containing propidium iodide (10 μg/ml) to stain dead cells, 10 μM Calcein AM (ThermoFisher, #C3100MP) to identify live cells, and 2 drops per ml of media of NucBlue™ Live ReadyProbes™ Reagent (ThermoFisher, #R37605) to identify nuclei. The mixture was added to plate media and incubated for 20-30 minutes at 37° C. and 5% CO2 before imaging. Excitation/emission of calcein-AM (λex 490 nm, λem 515 nm), propidium iodide (λex 535 nm, λem 617 nm), and nuclear blue (λex 350 nm, λem 461 nm) was performed using ImageXpress® Micro Cellular Imaging and Analysis System (Molecular Devices, Sunnyvale, CA) and analyzed by MetaExpress multiwavelength cell scoring program.

[2] = system: CSPG production by astrocytes; assay: Western blot of astrocyte conditioned medium, MAB2030 (chondroitin sulfate GAG stubs); assay type: cell-based, mouse; settings: for Reduce CSPG production: astrocytes, significance class
Summary of the method: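 Astrocytes (1×10^6 cells/well) were treated with 50 μM compound in AIM-V for 48 h, and pooled conditioned medium was concentrated for Western blot. Samples for MAB2030 were digested overnight at 37° C with 0.2 U/ml chondroitinase ABC; 2H6 blots were undigested. ECL band density was normalized to untreated astrocytes on the same gel.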

[3] = astrocyte conditioned media, 50 μM, 48 hours

Compound | toxicity on astrocytes (propidium iodide/calcein AM) [1] | effect on CSPG production by astrocytes [2, 3] | Reduce CSPG production [2] | effect on CSPG production by astrocytes [2]
CC(=O)NC1C(OC(C)=O)OC(COC(C)=O)C(F)(F)[C@@H]1OC(C)=O (mixture of isomers) [Compound 16, 2-Acetamido-1,3,6-tri-O-acetyl-2,4-dideoxy-4,4-difluoro-α/β-D-xylo-hexopyranose] | did not produce toxicity | reduced CSPG production in astrocytes more effectively than Ac-4-F-GlcNAc 3; also recorded: most effectively reduced CSPG production |  | 
CCCC(=O)OC1OC(COC(C)=O)[C@@H](F)[C@H](OC(C)=O)C1NC(C)=O (mixture of isomers) [Compound 8, 2-Acetamido-3,6-di-O-acetyl-1-O-butanoyl-2,4-dideoxy-4-fluoro-α/β-D-glucopyranose] | did not produce toxicity |  |  | 
CC(=O)NC1C(OC(C)=O)OC(COC(C)=O)[C@H](F)[C@@H]1OC(C)=O (mixture of isomers) [Compound 13, 2-Acetamido-1,3,6-tri-O-acetyl-2,4-dideoxy-4-fluoro-α/β-D-galactopyranose] | did not produce toxicity | significantly reduced chondroitin sulfate GAGs; also recorded: most effectively reduced CSPG production |  | 
CC(=O)NC1C(OC(C)=O)OC(COC(C)=O)[C@@H](F)C1OC(C)=O (stereo partly shown) [Compound 3, reference compound] | did not produce toxicity | most effectively reduced CSPG production | *** (***p < 0.001) | 
CC(=O)N[C@H]1[C@H](OC(C)=O)O[C@H](COC(C)=O)[C@@H](OC(C)=O)[C@@H]1OC(C)=O [Compound 1, reference compound] |  | did not affect CSPG production; also recorded: did not lower CSPG production in astrocytes | n.s. | 
CCCC(=O)OC[C@H]1OC(O)[C@H](NC(C)=O)[C@@H](OC(=O)CCC)[C@@H]1F (stereo partly drawn) [Compound 12, 2-Acetamido-3,6-di-O-butanoyl-2,4-dideoxy-4-fluoro-α/β-3-D-glucopyranose] |  | did not affect CSPG synthesis; also recorded: did not lower CSPG production in astrocytes | n.s. | 
CCC(=O)OC1OC(COC(C)=O)[C@@H](F)[C@H](OC(C)=O)C1NC(C)=O (stereo partly drawn) [Compound 7, 2-Acetamido-3,6-di-O-acetyl-2,4-dideoxy-4-fluoro-1-O-propanoyl-α/β-D-glucopyranose] | did not produce toxicity | most effectively reduced CSPG production |  | 
CC(=O)NC1C(O)OC(COC(C)=O)[C@@H](F)[C@@H]1OC(C)=O (mixture of isomers) [Compound 10] | did not produce toxicity |  |  | most effectively reduced CSPG production
